Experimental data as given in ChEMBL document CHEMBL5257041, “An exhaustive perspective on structural insights of SGLT2 inhibitors: A novel class of antidiabetic agent” (Eur J Med Chem, 2020).

Molecular target: T1, Sodium/glucose cotransporter 2 (Homo sapiens, UniProt P31639)
T1 sequence (P31639 whole entry): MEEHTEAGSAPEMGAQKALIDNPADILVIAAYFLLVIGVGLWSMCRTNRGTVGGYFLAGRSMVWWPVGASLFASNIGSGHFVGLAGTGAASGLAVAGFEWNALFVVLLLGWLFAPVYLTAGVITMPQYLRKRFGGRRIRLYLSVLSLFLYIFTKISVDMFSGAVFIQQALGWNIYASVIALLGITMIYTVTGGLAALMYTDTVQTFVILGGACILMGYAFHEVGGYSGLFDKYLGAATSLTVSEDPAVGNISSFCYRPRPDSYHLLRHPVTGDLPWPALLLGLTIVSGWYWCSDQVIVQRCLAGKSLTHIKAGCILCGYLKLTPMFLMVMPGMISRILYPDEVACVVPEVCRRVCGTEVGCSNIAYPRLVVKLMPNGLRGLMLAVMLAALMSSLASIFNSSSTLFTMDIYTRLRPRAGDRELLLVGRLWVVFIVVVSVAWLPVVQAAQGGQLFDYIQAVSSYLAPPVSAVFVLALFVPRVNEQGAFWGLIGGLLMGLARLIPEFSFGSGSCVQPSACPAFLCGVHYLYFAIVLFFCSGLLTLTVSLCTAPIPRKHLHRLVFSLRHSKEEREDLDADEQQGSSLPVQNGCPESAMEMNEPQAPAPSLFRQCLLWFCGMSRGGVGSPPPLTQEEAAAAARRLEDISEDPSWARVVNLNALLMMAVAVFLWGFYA
Test: Inhibition of human SGLT2

With CCc1ccc(Cc2cc([C@@H]3O[C@H](CO)C(F)(F)[C@H](O)[C@H]3O)ccc2Cl)cc1 the IC50 was 0.35 nM.
